Tests used:
Format in all cases: in vivo
[1] = tested on: Spodoptera littoralis (Egyptian Cotton Leaf Worm); assay: Example B1: Activity against Spodoptera littoralis, sprayed cotton leaf discs; conditions: foliar, 72 h, application rate 200 ppm, L1 larvae, 3 days after infestation, read-out: control in at least one of the three categories (mortality, anti-feedancy or growth inhibition)
Method: Example B1: Activity Against Spodoptera littoralis (Egyptian Cotton Leaf Worm)
Cotton leaf discs were placed on agar in 24-well microtiter plates and sprayed with aqueous test solutions prepared from 10′000 ppm DMSO stock solutions. After drying the leaf discs were infested with five L1 larvae. The samples were assessed for mortality, anti-feedant effect, and growth inhibition in comparison to untreated samples 3 days after infestation. Control of Spodoptera littoralis by a test sample is when at least one of mortality, anti-feedant effect, and growth inhibition is higher than the untreated sample.

[2] = tested on: Diabrotica Balteata (Corn Root Worm); assay: Example B4: Activity against Diabrotica balteata, sprayed maize sprouts; conditions: 96 h, application rate 200 ppm, L2 larvae, 4 days after infestation, read-out: effect in at least one of the two categories (mortality or growth inhibition)
Method: Example B4: Activity Against Diabrotica Balteata (Corn Root Worm)
Maize sprouts, placed on an agar layer in 24-well microtiter plates were treated with aqueous test solutions prepared from 10′000 ppm DMSO stock solutions by spraying. After drying, the plates were infested with L2 larvae (6 to 10 per well). The samples were assessed for mortality and growth inhibition in comparison to untreated samples 4 days after infestation.

[3] = tested on: Euschistus heros (Neotropical Brown Stink Bug); assay: Example B7: Activity against Euschistus heros, sprayed soybean leaf; conditions: 120 h, application rate 200 ppm, N-2 nymphs, 5 days after infestation
Method: Example B7: Activity Against Euschistus heros (Neotropical Brown Stink Bug)
Soybean leaf on agar in 24-well microtiter plates were sprayed with aqueous test solutions prepared from 10′000 ppm DMSO stock solutions. After drying the leaf were infested with N-2 nymphs. The samples were assessed for mortality 5 days after infestation.

[4] = tested on: Plutella xylostella (Diamond Back Moth); assay: Example B3: Activity against Plutella xylostella, artificial diet; conditions: 120 h, application rate 200 ppm, L2 larvae, 5 days after infestation, read-out: effect in at least one of the two categories (mortality or growth inhibition)
Method: Example B3: Activity Against Plutella xylostella (Diamond Back Moth)
24-well microtiter plates with artificial diet were treated with aqueous test solutions prepared from 10′000 ppm DMSO stock solutions by pipetting. After drying, the plates were infested with L2 larvae (10 to 15 per well). The samples were assessed for mortality and growth inhibition in comparison to untreated samples 5 days after infestation.

[5] = tested on: Myzus persicae (Green Peach Aphid); assay: Example B8: Activity against Myzus persicae, sprayed sunflower leaf discs; conditions: foliar, 144 h, application rate 200 ppm, aphid population of mixed ages, 6 days after infestation
Method: Example B8: Activity Against Myzus persicae (Green Peach Aphid)
Sunflower leaf discs were placed on agar in a 24-well microtiter plate and sprayed with aqueous test solutions prepared from 10′000 ppm DMSO stock solutions. After drying, the leaf discs were infested with an aphid population of mixed ages. The samples were assessed for mortality 6 days after infestation.

CCSc1cc(-c2ccc(Cl)cc2)cnc1C(=O)N(C)c1nnc(C(F)(F)F)s1 [Compound P1, 5-(4-chlorophenyl)-3-ethylsulfanyl-N-methyl-N-[5-(trifluoromethyl)-1,3,4-thiadiazol-2-yl]pyridine-2-carboxamide]
≥ 80%: percent control (mortality, anti-feedant effect or growth inhibition) at 200 ppm [1] | percent effect (mortality or growth inhibition) at 200 ppm [2] | mortality at 200 ppm [3] | percent effect (mortality or growth inhibition) at 200 ppm [4]

CCS(=O)(=O)c1ccc(-c2cnc(C(=O)N(C)c3nnc(C(F)(F)F)s3)c(S(=O)(=O)CC)c2)cc1 [Compound P3]
≥ 80%: percent control (mortality, anti-feedant effect or growth inhibition) at 200 ppm [1] | percent effect (mortality or growth inhibition) at 200 ppm [2] | percent effect (mortality or growth inhibition) at 200 ppm [4]

CCS(=O)(=O)c1cc(-n2ccc(C(F)(F)F)n2)cnc1C(=O)Nc1nnc(C(F)(F)C(F)(F)F)s1 [Compound P7]
≥ 80%: percent effect (mortality or growth inhibition) at 200 ppm [2]

CCS(=O)(=O)c1cc(-c2ccc(-c3ccc(Cl)cc3)cc2)cnc1C(=O)N(C)c1nnc(C(F)(F)F)s1 [Compound P9]
≥ 80%: percent control (mortality, anti-feedant effect or growth inhibition) at 200 ppm [1] | percent effect (mortality or growth inhibition) at 200 ppm [2] | percent effect (mortality or growth inhibition) at 200 ppm [4]

CCS(=O)(=O)c1cc(-c2ccc(C(F)(F)F)cc2)cnc1C(=O)Nc1nnc(C(F)(F)C(F)(F)F)s1 [Compound P10]
≥ 80%: percent effect (mortality or growth inhibition) at 200 ppm [2]

CCS(=O)(=O)c1cc(-c2ccc(C(F)(F)F)cc2)cnc1C(=O)N(C)c1nnc(C(F)(F)C(F)(F)F)s1 [Compound P11]
≥ 80%: percent control (mortality, anti-feedant effect or growth inhibition) at 200 ppm [1] | percent effect (mortality or growth inhibition) at 200 ppm [2] | mortality at 200 ppm [3] | percent effect (mortality or growth inhibition) at 200 ppm [4]

CCS(=O)(=O)c1cc(-c2ccc(Cl)cc2)cnc1C(=O)Nc1nnc(C(F)(F)C(F)(F)F)s1 [Compound P13]
≥ 80%: percent effect (mortality or growth inhibition) at 200 ppm [2] | percent effect (mortality or growth inhibition) at 200 ppm [4]

CCS(=O)(=O)c1cc(-n2ccc(C(F)(F)F)n2)cnc1C(=O)N(C)c1nnc(C(F)(F)C(F)(F)F)s1 [Compound P15]
≥ 80%: percent control (mortality, anti-feedant effect or growth inhibition) at 200 ppm [1] | percent effect (mortality or growth inhibition) at 200 ppm [2] | mortality at 200 ppm [3] | percent effect (mortality or growth inhibition) at 200 ppm [4]

CCSc1cc(-n2ccc(C(F)(F)F)n2)cnc1C(=O)N(C)c1nnc(C(F)(F)F)s1 [Compound P16, 3-ethylsulfanyl-N-methyl-5-[3-(trifluoromethyl)pyrazol-1-yl]-N-[5-(trifluoromethyl)-1,3,4-thiadiazol-2-yl]pyridine-2-carboxamide]
≥ 80%: percent control (mortality, anti-feedant effect or growth inhibition) at 200 ppm [1] | percent effect (mortality or growth inhibition) at 200 ppm [2]

CCS(=O)(=O)c1cc(-n2ccc(C(F)(F)F)n2)cnc1C(=O)N(C)c1nnc(C(F)(F)F)s1 [Compound P17, 3-ethylsulfonyl-N-methyl-5-[3-(trifluoromethyl)pyrazol-1-yl]-N-[5-(trifluoromethyl)-1,3,4-thiadiazol-2-yl]pyridine-2-carboxamide]
≥ 80%: percent control (mortality, anti-feedant effect or growth inhibition) at 200 ppm [1] | percent effect (mortality or growth inhibition) at 200 ppm [2] | mortality at 200 ppm [3] | percent effect (mortality or growth inhibition) at 200 ppm [4]

CCS(=O)(=O)c1cc(C2(C#N)CC2)cnc1C(=O)N(C)c1nnc(C(F)(F)F)s1 [Compound P18]
≥ 80%: percent control (mortality, anti-feedant effect or growth inhibition) at 200 ppm [1] | percent effect (mortality or growth inhibition) at 200 ppm [2] | percent effect (mortality or growth inhibition) at 200 ppm [4] | mortality at 200 ppm [5]

CCS(=O)(=O)c1cc(-c2ccc(Cl)cc2)c[n+]([O-])c1C(=O)N(C)c1nnc(C(F)(F)F)s1 [Compound P19, 5-(4-chlorophenyl)-3-ethylsulfonyl-N-methyl-1-oxido-N-[5-(trifluoromethyl)-1,3,4-thiadiazol-2-yl]pyridin-1-ium-2-carboxamide]
≥ 80%: percent control (mortality, anti-feedant effect or growth inhibition) at 200 ppm [1] | percent effect (mortality or growth inhibition) at 200 ppm [2] | mortality at 200 ppm [3] | percent effect (mortality or growth inhibition) at 200 ppm [4]

CCS(=O)(=O)c1ccc(-c2ccc(C(F)(F)F)cc2)nc1C(=O)N(C)c1nnc(C(F)(F)F)s1 [Compound P21, 3-ethylsulfonyl-N-methyl-6-[4-(trifluoromethyl)phenyl]-N-[5-(trifluoromethyl)-1,3,4-thiadiazol-2-yl]pyridine-2-carboxamide]
≥ 80%: percent control (mortality, anti-feedant effect or growth inhibition) at 200 ppm [1] | percent effect (mortality or growth inhibition) at 200 ppm [2] | percent effect (mortality or growth inhibition) at 200 ppm [4]

CCS(=O)(=O)c1cc(-c2ccc(OC(F)(F)F)cc2)cnc1C(=O)N(C)c1nnc(C(F)(F)F)s1 [Compound P22]
≥ 80%: percent control (mortality, anti-feedant effect or growth inhibition) at 200 ppm [1] | percent effect (mortality or growth inhibition) at 200 ppm [2] | mortality at 200 ppm [3] | percent effect (mortality or growth inhibition) at 200 ppm [4] | mortality at 200 ppm [5]

CCS(=O)(=O)c1cc(-c2cccc(C#N)c2)cnc1C(=O)N(C)c1nnc(C(F)(F)F)s1 [Compound P23]
≥ 80%: percent control (mortality, anti-feedant effect or growth inhibition) at 200 ppm [1] | percent effect (mortality or growth inhibition) at 200 ppm [2] | percent effect (mortality or growth inhibition) at 200 ppm [4]

CCS(=O)(=O)c1cc(-c2cc(Cl)cc(Cl)c2)cnc1C(=O)N(C)c1nnc(C(F)(F)F)s1 [Compound P24]
≥ 80%: percent control (mortality, anti-feedant effect or growth inhibition) at 200 ppm [1] | percent effect (mortality or growth inhibition) at 200 ppm [2] | percent effect (mortality or growth inhibition) at 200 ppm [4]

CCS(=O)(=O)c1cc(-c2cc(Cl)c(F)c(Cl)c2)cnc1C(=O)N(C)c1nnc(C(F)(F)F)s1 [Compound P27]
≥ 80%: percent control (mortality, anti-feedant effect or growth inhibition) at 200 ppm [1] | percent effect (mortality or growth inhibition) at 200 ppm [2] | percent effect (mortality or growth inhibition) at 200 ppm [4]

CCS(=O)(=O)c1cc(-c2ccc(Cl)cc2Cl)cnc1C(=O)N(C)c1nnc(C(F)(F)F)s1 [Compound P34]
≥ 80%: percent control (mortality, anti-feedant effect or growth inhibition) at 200 ppm [1] | percent effect (mortality or growth inhibition) at 200 ppm [2] | mortality at 200 ppm [3] | percent effect (mortality or growth inhibition) at 200 ppm [4]

CCS(=O)(=O)c1cc(-c2cccc(C(F)(F)F)n2)cnc1C(=O)N(C)c1nnc(C(F)(F)F)s1 [Compound P45]
≥ 80%: percent control (mortality, anti-feedant effect or growth inhibition) at 200 ppm [1] | percent effect (mortality or growth inhibition) at 200 ppm [2] | percent effect (mortality or growth inhibition) at 200 ppm [4] | mortality at 200 ppm [5]

CCS(=O)(=O)c1cc(-c2ccc(Cl)c(Cl)n2)cnc1C(=O)N(C)c1nnc(C(F)(F)F)s1 [Compound P46]
≥ 80%: percent control (mortality, anti-feedant effect or growth inhibition) at 200 ppm [1] | percent effect (mortality or growth inhibition) at 200 ppm [2] | percent effect (mortality or growth inhibition) at 200 ppm [4]

CCS(=O)(=O)c1cc(-c2cccc(C#N)n2)cnc1C(=O)N(C)c1nnc(C(F)(F)F)s1 [Compound P50]
≥ 80%: percent control (mortality, anti-feedant effect or growth inhibition) at 200 ppm [1] | percent effect (mortality or growth inhibition) at 200 ppm [2] | percent effect (mortality or growth inhibition) at 200 ppm [4]

CCS(=O)(=O)c1cc(-c2ccc(C(F)(F)F)cn2)cnc1C(=O)N(C)c1nnc(C(F)(F)F)s1 [Compound P53]
≥ 80%: percent control (mortality, anti-feedant effect or growth inhibition) at 200 ppm [1] | percent effect (mortality or growth inhibition) at 200 ppm [2] | percent effect (mortality or growth inhibition) at 200 ppm [4]

CCS(=O)(=O)c1cc(-c2cncc(C(F)(F)F)c2)cnc1C(=O)N(C)c1nnc(C(F)(F)F)s1 [Compound P55]
≥ 80%: percent control (mortality, anti-feedant effect or growth inhibition) at 200 ppm [1] | percent effect (mortality or growth inhibition) at 200 ppm [2]

CCS(=O)(=O)c1cc(-c2ncc(C#N)cn2)cnc1C(=O)N(C)c1nnc(C(F)(F)F)s1 [Compound P63]
≥ 80%: percent control (mortality, anti-feedant effect or growth inhibition) at 200 ppm [1] | percent effect (mortality or growth inhibition) at 200 ppm [2] | mortality at 200 ppm [3] | percent effect (mortality or growth inhibition) at 200 ppm [4]
